# From patent US12091426B2, “Bifunctional degraders of hematopoietic progenitor kinase and therapeutic uses thereof” (Nurix Therapeutics, Inc., priority 2021, dated 2024)
# Biological target: T1, HPK1 (Homo sapiens, UniProt Q92918)
# T1 construct: A HiBiT tag was introduced by CRISPR on the N terminus of HPK1 in Jurkat cells; host or cells: Jurkat cells (ATCC TIB-152), monoclonal line with CRISPR knock-in of HiBiT at the endogenous HPK1 locus
# Assay: HPK1 Cellular HiBit Degradation Assay
# Assay type: cell-based
# Conditions: HiBiT HPK1 Jurkat cells, 24 hrs; for DC50: concentration at which 50% of HPK1 was remaining, read-out: DC50 Category; for Dmax: Jurkat, maximum degradation vs DMSO vehicle control, read-out: Dmax Category
# Outline: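 Degraders are dosed in an 11-point series (10 uM to 0.1 nM final) onto Jurkat cells carrying an N-terminal HiBiT tag on endogenous HPK1. After 24 hrs at 37° C, lysis-based HiBiT luminescence quantifies remaining HPK1 relative to vehicle, and curve fitting gives DC50 and Dmax.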
# T1 sequence (Q92918 whole entry): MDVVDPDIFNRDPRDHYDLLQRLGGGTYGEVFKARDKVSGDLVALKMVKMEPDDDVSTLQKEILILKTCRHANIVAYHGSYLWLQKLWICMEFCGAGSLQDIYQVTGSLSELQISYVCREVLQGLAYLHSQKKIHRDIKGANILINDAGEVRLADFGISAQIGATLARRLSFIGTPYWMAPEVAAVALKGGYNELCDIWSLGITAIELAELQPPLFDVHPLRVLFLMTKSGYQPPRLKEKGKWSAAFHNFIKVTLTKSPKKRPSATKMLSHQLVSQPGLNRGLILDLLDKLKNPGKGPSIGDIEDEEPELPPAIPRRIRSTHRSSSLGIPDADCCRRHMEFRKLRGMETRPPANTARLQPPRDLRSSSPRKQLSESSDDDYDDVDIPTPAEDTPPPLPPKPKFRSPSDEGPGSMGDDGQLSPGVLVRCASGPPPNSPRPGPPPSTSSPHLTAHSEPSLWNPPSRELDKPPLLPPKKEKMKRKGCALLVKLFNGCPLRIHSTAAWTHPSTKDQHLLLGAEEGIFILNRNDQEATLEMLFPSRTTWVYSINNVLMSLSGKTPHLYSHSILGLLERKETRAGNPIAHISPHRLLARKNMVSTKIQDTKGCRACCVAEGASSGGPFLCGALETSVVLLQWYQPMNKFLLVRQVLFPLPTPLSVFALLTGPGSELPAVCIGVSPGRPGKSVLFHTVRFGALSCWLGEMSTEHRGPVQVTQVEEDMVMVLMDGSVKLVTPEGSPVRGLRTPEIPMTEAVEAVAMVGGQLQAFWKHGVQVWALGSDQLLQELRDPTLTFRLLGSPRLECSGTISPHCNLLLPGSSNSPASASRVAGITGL
DC50,Dmax,SMILES
100 to 500 nM,50 to 70%,"CC(C)n1cnc2cc(-c3ccc4c(c3)N([C@H]3C[C@@H](N5CCCCC5)C3)C(=O)C43CCN(C(=O)C4CC5CCC4N(C(=O)C4CCN(c6ccc(C7CCC(=O)NC7=O)cn6)CC4)C5)CC3)nc(NC3CC3)c21 (mixture of isomers) [Example 283, (3RS)-3-(6-{4-[6-({6-[4-(cyclopropylamino)-3-(propan-2-yl)-3H-imidazo[4,5-c]pyridin-6-yl]-2-oxo-1-[(1S,3S)-3-(piperidin-1-yl)cyclobutyl]-1,2-dihydrospiro[indole-3,4′-piperidin]-1′-yl}carbonyl)-2-azabicyclo[2.2.2]Octane-2-carbonyl]piperidin-1-yl}pyridin-3-yl)piperidine-2,6-dione]"
100 to 500 nM,50 to 70%,"CC(C)n1cnc2cc(-c3ccc4c(c3)N([C@H]3C[C@@H](N5CCCCC5)C3)C(=O)C43CCN(C(=O)C4(C)CCN(C(=O)N5CC6(C5)CN(c5ccc(C7CCC(=O)NC7=O)cn5)C6)CC4)CC3)nc(NC3CC3)c21 (stereo partly drawn) [Example 184, 3-(6-{6-[4-({6-[4-(cyclopropylamino)-3-(propan-2-yl)-3H-imidazo[4,5-c]pyridin-6-yl]-2-oxo-1-[(1S,3S)-3-(piperidin-1-yl)cyclobutyl]-1,2-dihydrospiro[indole-3,4′-piperidine]-1′-yl}carbonyl)-4-methylpiperidine-1-carbonyl]-2,6-diazaspiro[3.3]heptan-2-yl}pyridin-3-yl)piperidine-2,6-dione]"
100 to 500 nM,70 to 85%,"CC(C)n1cnc2cc(-c3ccc4c(c3)N([C@H]3C[C@@H](N5CCCCC5)C3)C(=O)C43CCN(C(=O)[C@H]4CC[C@H](CNC(=O)C5CCN(c6ccc(C7CCC(=O)NC7=O)cn6)CC5)CC4)CC3)nc(NC3CC3)c21 (mixture of isomers) [Example 291, 1-{5-[(3RS)-2,6-dioxopiperidin-3-yl]pyridin-2-yl}-N-{[(1R,4R)-4-({6-[4-(cyclopropylamino)-3-(propan-2-yl)-3H-imidazo[4,5-c]pyridin-6-yl]-2-oxo-1-[(1S,3S)-3-(piperidin-1-yl)cyclobutyl]-1,2-dihydrospiro[indole-3,4′-piperidin]-1′-yl}carbonyl)cyclohexyl]methyl}piperidine-4-carboxamide]"
< 100 nM,> 85%,"CC(C)n1cnc2cc(-c3ccc4c(c3)N([C@H]3C[C@@H](N5CCCCC5)C3)C(=O)C43CCN(C(=O)C4(C)CCN(C(=O)C5CCN(c6ccc(C7CCC(=O)NC7=O)cn6)CC5)CC4)CC3)nc(N[C@H]3C[C@@H](C#N)C3)c21 (stereo partly drawn) [Example 174, (1S,3S)-3-({6-[1′-(1-{1-[5-(2,6-dioxopiperidin-3-yl)pyridin-2-yl]piperidine-4-carbonyl}-4-methylpiperidine-4-carbonyl)-2-oxo-1-[(1S,3S)-3-(piperidin-1-yl)cyclobutyl]-1,2-dihydrospiro-[indole-3,4′-piperidin]-6-yl]-3-(propan-2-yl)-3H-imidazo[4,5-c]pyridin-4-yl}amino)cyclobutane-1-carbonitrile]"
100 to 500 nM,50 to 70%,"CC(C)n1cnc2cc(-c3ccc4c(c3)N([C@H]3C[C@@H](N5CCCCC5)C3)C(=O)C43CCN(C(=O)N4CCC(C(=O)N5CCN(c6ccc(C7CCC(=O)NC7=O)cn6)CC5)CC4)CC3)nc(NC3CC3)c21 (stereo partly drawn) [Example 181, 3-(6-{4-[1-({6-[4-(cyclopropylamino)-3-(propan-2-yl)-3H-imidazo[4,5-c]pyridin-6-yl]-2-oxo-1-[(1S,3S)-3-(piperidin-1-yl)cyclobutyl]-1,2-dihydrospiro[indole-3,4′-piperidin]-1′-yl}carbonyl)piperidine-4-carbonyl]piperazin-1-yl}pyridin-3-yl)piperidine-2,6-dione]"

# The remaining lines, values behind:
SMILES,DC50,Dmax
"CC(C)n1cnc2cc(-c3ccc4c(c3)N([C@H]3C[C@@H](N5CCCCC5)C3)C(=O)C43CCN(C(=O)C4CCN(C(=O)C5CCN(c6ccc(N7CCC(=O)NC7=O)cc6)CC5)CC4)CC3)nc(NC3CC3)c21 [Example 69, 1-(4-{4-[4-({6-[4-(cyclopropylamino)-3-(propan-2-yl)-3h-imidazo[4,5-c]pyridin-6-yl]-2-oxo-1-[(1S,3S)-3-(piperidin-1-yl)cyclobutyl]-1,2-dihydrospiro[indole-3,4′-piperidin]-1′-yl}carbonyl)piperidine-1-carbonyl]piperidin-1-yl}phenyl)-1,3-diazinane-2,4-dione]",< 100 nM,70 to 85%
"CC(C)n1cnc2cc(-c3ccc4c(c3)N([C@H]3C[C@@H](N5CC6CCC(C6)C5)C3)C(=O)C43CCN(C(=O)C4(C)CCN(C(=O)CC5CCN(c6ccc(C7CCC(=O)NC7=O)cn6)CC5)CC4)CC3)nc(NC3CC3)c21 (mixture of isomers) [Example 223, (3RS)-3-[6-(4-{2-[4-({6-[4-(cyclopropylamino)-3-(propan-2-yl)-3H-imidazo[4,5-c]pyridin-6-yl]-2-oxo-1-[(1S,3S)-3-{3-azabicyclo[3.2.1]octan-3-yl}cyclobutyl]-1,2-dihydrospiro[indole-3,4′-piperidin]-1′-yl}carbonyl)-4-methylpiperidin-1-yl]-2-oxoethyl}piperidin-1-yl)pyridin-3-yl]piperidine-2,6-dione]",< 100 nM,70 to 85%
"CC(C)n1cnc2cc(-c3ccc4c(c3)N([C@H]3C[C@@H](N5CCCCC5)C3)C(=O)C43CCN(C(=O)[C@@H]4CCN(C(=O)[C@H]5CC[C@H](Nc6ccc(C(=O)NC7CCC(=O)NC7=O)nc6)CC5)C4)CC3)nc(Nc3ccccc3F)c21 (mixture of isomers) [Example 7, N-[(3RS)-2,6-dioxopiperidin-3-yl]-5-{1[(1R,4R)-4-[(3R)-3-[(6-{4-[(2-fluorophenyl)amino]-3-(propan-2-yl)-3H-imidazo[4,5-c]pyridin-6-yl}-2-oxo-1-[(1S,3S)-3-(piperidin-1-yl)cyclobutyl]-1,2-dihydrospiro[indole-3,4′-piperidin]-1′-yl)carbonyl]pyrrolidine-1-carbonyl]cyclohexyl]amino}pyridine-2-carboxamide]",500 to 1000 nM,50 to 70%
"CC(C)n1cnc2cc(-c3ccc4c(c3)N([C@H]3C[C@@H](N5CCCCC5)C3)C(=O)C43CCN(C(=O)C4CCN(C(=O)C5CCN(c6ccc(C7CCC(=O)NC7=O)nn6)CC5)CC4)CC3)nc(NC3CC3)c21 (mixture of isomers) [Example 236, (3RS)-3-(6-{4-[4-({6-[4-(cyclopropylamino)-3-(propan-2-yl)-3H-imidazo[4,5-c]pyridin-6-yl]-2-oxo-1-[(1S,3S)-3-(piperidin-1-yl)cyclobutyl]-1,2-dihydrospiro[indole-3,4′-piperidin]-1′-yl}carbonyl)piperidine-1-carbonyl]piperidin-1-yl}pyridazin-3-yl)piperidine-2,6-dione]",< 100 nM,70 to 85%
"CC(C)n1cnc2cc(-c3ccc4c(c3)N([C@H]3C[C@@H](N5CCCCC5)C3)C(=O)C43CCN(C(=O)[C@@H]4CCN(C(=O)[C@H]5CC[C@H](Nc6cccc(C7CCC(=O)NC7=O)n6)CC5)C4)CC3)nc(Nc3ccccc3F)c21 (mixture of isomers) [Example 8, (3RS)-3-(6-{1[(1R,4R)-4-[(3R)-3-[(6-{4-[(2-fluorophenyl)amino]-3-(propan-2-yl)-3H-imidazo[4,5-c]pyridin-6-yl}-2-oxo-1-[(1S,3S)-3-(piperidin-1-yl)cyclobutyl]-1,2-dihydrospiro[indole-3,4′-piperidin]-1′-yl)carbonyl]pyrrolidine-1-carbonyl]cyclohexyl]amino}pyridin-2-yl)piperidine-2,6-dione]",500 to 1000 nM,70 to 85%
"CC(C)n1cnc2cc(-c3ccc4c(c3)N([C@H]3C[C@@H](N5CCCCC5)C3)C(=O)C43CCN(C(=O)[C@@H]4CCN(C(=O)[C@H]5CC[C@H](Oc6ccc(C7CCC(=O)NC7=O)cc6)CC5)C4)CC3)nc(Nc3ccncc3F)c21 (stereo partly drawn) [Example 15, 3-(4-{[(1R,4R)-4-[(3R)-3-[(6-{4-[(3-fluoropyridin-4-yl)amino]-3-(propan-2-yl)-3H-imidazo[4,5-c]pyridin-6-yl}-2-oxo-1-[(1S,3S)-3-(piperidin-1-yl)cyclobutyl]-1,2-dihydrospiro[indole-3,4′-piperidin]-1′-yl)carbonyl]pyrrolidine-1-carbonyl]cyclohexyl]oxy}phenyl)piperidine-2,6-dione]",< 100 nM,> 85%
"CC(C)n1cnc2cc(-c3ccc4c(c3)N([C@H]3C[C@@H](N5CCCCC5)C3)C(=O)C43CCN(C(=O)C4C5CC4CN(C(=O)[C@H]4CC[C@H](Oc6ccc(C7CCC(=O)NC7=O)cc6)CC4)C5)CC3)nc(NC3CC3)c21 (stereo partly drawn) [Example 241, 3-(4-{[(1R,4R)-4-[6-({6-[4-(cyclopropylamino)-3-(propan-2-yl)-3H-imidazo[4,5-c]pyridin-6-yl]-2-oxo-1-[(1S,3S)-3-(piperidin-1-yl)cyclobutyl]-1,2-dihydrospiro[indole-3,4′-piperidin]-1′-yl}carbonyl)-3-azabicyclo[3.1.1]heptane-3-carbonyl]cyclohexyl]oxy}phenyl)piperidine-2,6-dione]",< 100 nM,> 85%
"CC(C)n1cnc2cc(-c3ccc4c(c3)N([C@H]3C[C@@H](N5CC6CCC(C5)O6)C3)C(=O)C43CCN(C(=O)C4(C)CCN(C(=O)CC5CCN(c6ccc(C7CCC(=O)NC7=O)cn6)CC5)CC4)CC3)nc(NC3CC3)c21 (mixture of isomers) [Example 207, (3RS)-3-[6-(4-{2-[4-({6-[4-(cyclopropylamino)-3-(propan-2-yl)-3H-imidazo[4,5-c]pyridin-6-yl]-2-oxo-1-[(1S,3S)-3-{8-oxa-3-Azabicyclo[3.2.1]octan-3-yl}cyclobutyl]-1,2-dihydrospiro[indole-3,4′-piperidin]-1′-yl}carbonyl)-4-methylpiperidin-1-yl]-2-oxoethyl}piperidin-1-yl)pyridin-3-yl]piperidine-2,6-dione]",500 to 1000 nM,50 to 70%
